Laboratory results as given in PubChem BioAssay (NCI).
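Each compound was tested at five concentrations against cells in 96-well plates for 48 hours. GI50 is the concentration that inhibits growth by half. TGI marks complete inhibition of growth.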

Key:
Assay in all cases: growth of human tumour cells (NCI), 48 h
[1] = test system: MDA-MB-435
[2] = test system: HS 578T breast
[3] = test system: DU-145 prostate
[4] = test system: HL-60(TB) leukemia
[5] = test system: NCI/ADR-RES ovarian
[6] = test system: T-47D breast
[7] = test system: MALME-3M melanoma
[8] = test system: MDA-N
[9] = test system: LXFL 529 NSCLC
[10] = test system: SR leukemia
[11] = test system: DMS 273 small cell lung
[12] = test system: M19-MEL melanoma
[13] = test system: DLD-1 colon

Work on CCSc1nc(N2CCCCC2)c2cn[nH]c2n1 yielded a GI50 [1] of 28.8 µM, a TGI [1] of 75.6 µM and a GI50 [2] of 32.7 µM. The TGI [2] was greater than 100 µM, the GI50 [3] was 18.4 µM and the TGI [3] was 75.5 µM. It also gave a GI50 [4] of 27.4 µM, a TGI [4] greater than 100 µM and a GI50 [5] of 92.5 µM. The TGI [5] was greater than 100 µM, the GI50 [6] was 16 µM and the TGI [6] was 62.4 µM. For the same compound, the GI50 [7] was 37.1 µM and the TGI [7] was 97.5 µM.

Work on CC(=O)NC(CCCCNC(=O)OC(C)(C)C)C(=O)O (stereo unspecified) yielded a TGI [1] greater than 100 µM, a TGI [8] greater than 100 µM and a TGI [3] greater than 100 µM. For the same compound, the TGI [4] was greater than 100 µM, the TGI [5] was greater than 100 µM and the TGI [6] was greater than 100 µM. It also gave a TGI [7] greater than 100 µM.

In the case of CCN(CC)CCC(=O)c1ccccc1, the TGI [9] was 32.1 µM, the TGI [10] was 35.3 µM and the TGI [11] was 33.5 µM. For the same compound, the TGI [12] was 56.1 µM and the TGI [4] was 43.9 µM.

With O=C(O)/C=C/c1cnc[nH]1 the TGI [13] was greater than 500 µM, the TGI [11] was greater than 500 µM and the TGI [12] was greater than 500 µM. It also gave a GI50 [4] greater than 500 µM, a TGI [4] greater than 500 µM and a TGI [5] greater than 500 µM. It also gave a TGI [7] greater than 500 µM.

For COc1cccc(C2C(C(=O)O)=C(CO)Oc3cc4c(cc32)OCO4)c1 (stereo unspecified), the TGI [9] was greater than 100 µM, the TGI [13] was greater than 100 µM and the TGI [12] was greater than 100 µM. It also gave a TGI [4] greater than 100 µM and a TGI [7] greater than 100 µM.

CCOc1ccc(N=Nc2ccc3oc(=O)c(/C(C)=N\NC(=O)CC(=O)Nc4ccc(Cl)cc4)cc3c2)cc1 showed a TGI [9] of 27 µM, a TGI [13] of 32 µM and a TGI [10] of 25 µM. For the same compound, the TGI [11] was 37.3 µM, the TGI [12] was greater than 100 µM and the TGI [7] was 30.3 µM.

For CCOC(=O)C1(C(=O)OCC)CSC1, the TGI [1] was greater than 100 µM, the TGI [8] was greater than 100 µM and the TGI [2] was greater than 100 µM. It also gave a TGI [10] greater than 100 µM, a TGI [3] greater than 100 µM and a TGI [5] greater than 100 µM. The TGI [6] was greater than 100 µM.
